Values after ≈ are worked out from the molar mass of the structure shown.
Key:
[1] = system: Neisseria meningitidis ATCC 13090; test: MIC, broth microdilution (CLSI) versus planktonic bacteria; format: cell-based; conditions: ATCC13090, 16-20 h, mode of three independent experiments
[2] = system: Mycobacterium smegmatis ATCC 19420; test: as above; format: cell-based; conditions: Mycolicibacterium smegmatis, ATCC19420, 16-20 h, mode of three independent experiments, read-out: MIC, Ms ATCC 19420
[3] = system: Burkholderia pseudomallei 1026b; test: microbe, parasite or virus in culture; format: cell-based; conditions: 24 h, read-out: MIC, Burkholderia pseudomallei 1026b
E. coli MG1655 = test: MIC, broth microdilution (CLSI) versus planktonic bacteria; format: cell-based, Escherichia coli; conditions: Escherichia coli, MG1655, read-out: MIC, Ec MG1655 WT
[4] = system: Haemophilus influenzae ATCC 49247; test: as above; format: cell-based; conditions: ATCC49247; Haemophilus influenzae ATCC 49247; 16-20 h; mode of three independent experiments; read-out: MIC, Hi ATCC 49247
[5] = system: Burkholderia pseudomallei DD503; test: microbe, parasite or virus in culture; format: cell-based; conditions: DD503, 24 h, read-out: MIC, Burkholderia pseudomallei DD503
[6] = system: Acinetobacter baumannii NCTC 13420; test: MIC, broth microdilution (CLSI) versus planktonic bacteria; format: cell-based; conditions: NCTC13420; Acinetobacter baumannii NCTC 13420; 16-20 h; mode of three independent experiments; read-out: MIC, Ab NCTC 13420
[7] = system: human hepatic cell line (HepG2 ATCC HB-8065); test: Human cell viability assay (CellTiter-Glo); conditions: Homo sapiens, HepG2, 24 h, read-out: IC50 (μg/mL) HepG2
E. coli MG1655 S83L = format: cell-based, Escherichia coli; conditions: compared to the isogenic parent strain E. coli MG1655; S83L mutation on DNA gyrase subunit GyrA
[8] = system: Burkholderia mallei China 7; test: microbe, parasite or virus in culture; format: cell-based; conditions: CHINA7, 24 h, read-out: MIC, Burkholderia mallei China 7
[9] = system: Francisella tularensis SCHU S4; test: microbe, parasite or virus in culture; format: cell-based; conditions: SCHUS4, 38 h, read-out: MIC, Francisella tularensis SCHU S4
[10] = system: Pseudomonas aeruginosa ATCC 27853; test: MIC, broth microdilution (CLSI) versus planktonic bacteria; format: cell-based; conditions: ATCC27853; Pseudomonas aeruginosa ATCC 27853; 16-20 h; mode of three independent experiments; read-out: MIC, Pa ATCC 27853
[11] = system: Acinetobacter baumannii ATCC 19606; test: as above; format: cell-based; conditions: ATCC19606; Acinetobacter baumannii ATCC 19606; 16-20 h; mode of three independent experiments; read-out: MIC, Ab ATCC 19606
Bacillus anthracis Ames = test: microbe, parasite or virus in culture; format: cell-based; conditions: 24 h, read-out: MIC, Bacillus anthracis Ames
Yersinia pestis CO92 = test: microbe, parasite or virus in culture; format: cell-based; conditions: CO92, read-out: MIC, Yersinia pestis CO92
E. coli MG1655 D87G = format: cell-based, Escherichia coli; conditions: compared to the isogenic parent strain E. coli MG1655; D87G mutation on DNA gyrase subunit GyrA
E. coli ATCC BAA-2452 = test: MIC, broth microdilution (CLSI) versus planktonic bacteria; format: cell-based; conditions: Escherichia coli ATCC BAA-2452; 16-20 h; mode of three independent experiments; read-out: MIC, Ec ATCC BAA 2452
E. coli NCTC 13476 = test: as above; format: cell-based; conditions: NCTC13476; Escherichia coli NCTC 13476; 16-20 h; mode of three independent experiments; read-out: MIC, Ec NCTC 13476
[12] = system: Escherichia coli ATCC 25922; test: as above; format: cell-based; conditions: ATCC25922; Escherichia coli ATCC 25922; 16-20 h; mode of three independent experiments; read-out: MIC, Ec ATCC 25922
[13] = system: Burkholderia pseudomallei K96243; test: microbe, parasite or virus in culture; format: cell-based; conditions: K96243, 24 h, read-out: MIC, Burkholderia pseudomallei K96243
[14] = system: Streptococcus pneumoniae ATCC 49619; test: MIC, broth microdilution (CLSI) versus planktonic bacteria; format: cell-based; conditions: ATCC49619; Streptococcus pneumoniae ATCC 49619; 16-20 h; mode of three independent experiments; read-out: MIC, Sp ATCC 49619
[15] = system: Enterobacter cloacae NCTC 13406; test: as above; format: cell-based; conditions: NCTC13406; Enterobacter cloacae NCTC 13406; 16-20 h; mode of three independent experiments; read-out: MIC, Ecl NCTC 13406
[16] = system: Staphylococcus aureus ATCC 29213; test: as above; format: cell-based; conditions: ATCC29213; Staphylococcus aureus ATCC 29213; 16-20 h; mode of three independent experiments; read-out: MIC, Sa ATCC 29213
[17] = system: Enterococcus faecium ATCC 19434; test: as above; format: cell-based; conditions: ATCC19434, 16-20 h, mode of three independent experiments, read-out: MIC, Efm ATCC 19434
[18] = system: Gram-negative and Gram-positive bacterial strains; format: cell-based; conditions: strain panel of Table 1
[19] = system: fluoroquinolone-resistant Enterococcus faecium ATCC 700221; test: MIC, broth microdilution (CLSI) versus planktonic bacteria; format: cell-based; conditions: ATCC700221, 16-20 h, mode of three independent experiments, read-out: MIC, Efm ATCC 700221
[20] = system: Enterococcus faecalis ATCC 29212; test: as above; format: cell-based; conditions: ATCC29212, 16-20 h, mode of three independent experiments, read-out: MIC, Ef ATCC 29212

Row | Compound | MIC [1] [µg/mL] | MIC [2] [µg/mL] | MIC [3] [µg/mL] | MIC (E. coli MG1655) [µg/mL] | MIC [4] [µg/mL] | MIC [5] [µg/mL] | MIC [6] [µg/mL] | IC50 [7] [µg/mL] | Fold increase in MIC, E. coli MG1655 S83L (E. coli MG1655 S83L) [fold] | MIC [8] [µg/mL] | MIC [9] [µg/mL] | MIC [10] [µg/mL] | MIC [11] [µg/mL] | Fold increase in MIC, E. coli MG1655 D87G (E. coli MG1655 D87G) [fold] | MIC (E. coli ATCC BAA-2452) [µg/mL] | MIC (E. coli NCTC 13476) [µg/mL] | MIC [12] [µg/mL] | MIC [14] [µg/mL] | MIC [15] [µg/mL] | MIC [16] [µg/mL] | further results
1 | COc1ncc2ccc(=O)n(CCN[C@@H]3CC[C@@H]4[C@@H](C3)OC(=O)N4c3ccc4c(n3)NC(=O)CO4)c2n1 [Compound 2, (3aR,6R,7aR)-6-[(2-{2-methoxy-7-oxo-7H,8H-pyrido[2,3-d]pyrimidin-8-yl}ethyl)amino]-3-(3-oxo-2H,3H,4H-pyrido[3,2-b][1,4]oxazin-6-yl}-octahydro-1,3-benzoxazol-2-one] | < 1 | < 1 | 1 to 4 (≈ 1.97 to 7.88 µM) | < 1 | < 1 | 1 to 4 (≈ 1.97 to 7.88 µM) | < 1 | > 100 | 1 | 1 to 4 (≈ 1.97 to 7.88 µM) | 1 to 4 (≈ 1.97 to 7.88 µM) | 1 to 10 (≈ 1.97 to 19.7 µM) | < 1 | 1 | < 1 | 1 to 10 (≈ 1.97 to 19.7 µM) | < 1 | < 1 | < 1 | < 1 | MIC (Bacillus anthracis Ames): < 1 µg/mL; MIC (Yersinia pestis CO92): < 1 µg/mL; MIC [13]: 1 to 4 µg/mL (≈ 1.97 to 7.88 µM)
2 | C[C@H]1c2cccc(O)c2C(=O)C2=C(O)[C@]3(O)C(=O)C(C(N)=O)=C(O)[C@@H](N(C)C)[C@@H]3[C@@H](O)[C@@H]21 [DOX, doxycycline, reference compound] | – | – | 1 to 4 (≈ 2.25 to 9 µM) | – | – | 1 to 4 (≈ 2.25 to 9 µM) | – | – | – | < 1 | < 1 | – | – | – | – | – | – | – | – | – | MIC (Bacillus anthracis Ames): < 1 µg/mL; MIC (Yersinia pestis CO92): 1 to 4 µg/mL (≈ 2.25 to 9 µM); MIC [13]: 1 to 4 µg/mL (≈ 2.25 to 9 µM)
3 | COc1ccc2ccc(=O)n(CCN[C@@H]3CC[C@@H]4[C@@H](C3)OC(=O)N4c3ccc4c(n3)NC(=O)CO4)c2n1 [Compound 1, 1-(2-{[(3aR,6R,7aR)-2-oxo-3-{3-oxo-2H,3H,4H-pyrido[3,2-b][1,4]oxazin-6-yl}-octahydro-1,3-benzoxazol-6-yl]amino}ethyl)-7-methoxy-1,2-dihydro-1,8-naphthyridin-2-one] | < 1 | < 1 | – | < 1 | < 1 | – | < 1 | > 100 | 1 | – | – | < 1 | < 1 | 1 | < 1 | < 1 | < 1 | < 1 | < 1 | < 1 | MIC [17]: < 1 µg/mL; activity against both Gram-negative and Gram-positive bacteria (in words) [18]: excellent activity; MIC [19]: < 1 µg/mL; MIC [20]: < 1 µg/mL
4 | COc1ccc2ccc(=O)n(CCCN[C@@H]3CC[C@@H]4[C@@H](C3)OC(=O)N4c3ccc4c(n3)NC(=O)CO4)c2n1 [Compound 76, 1-(3-{[(3aR,6R,7aR)-2-oxo-3-{3-oxo-2H,3H,4H-pyrido[3,2-b][1,4]oxazin-6-yl}-octahydro-1,3-benzoxazol-6-yl]amino}propyl)-7-methoxy-1,2-dihydro-1,8-naphthyridin-2-one] | – | – | – | < 1 | < 1 | – | < 1 | 10 to 100 (≈ 19.2 to 192 µM) | 2 | – | – | < 1 | < 1 | 2 | < 1 | < 1 | < 1 | < 1 | < 1 | < 1 | MIC [17]: < 1 µg/mL; activity against both Gram-negative and Gram-positive bacteria (in words) [18]: excellent activity; MIC [19]: < 1 µg/mL; MIC [20]: < 1 µg/mL

From US10487093B2, “Heterocyclic compounds, in particular 2-oxo-4,4,5,5,6,6,7,7-octahydrobenzoxazole derivatives, and their use as antibacterial compounds” (priority 2016, dated 2019)
